# From patent US20210038661A1, “TREATMENT OF TUMORS BY A COMBINATION OF AN ONCOLYTIC ADENOVIRUS AND A CDK4/6 INHIBITOR” (KLINIKUM RECHTS DER ISAR DER TECHNISCHEN UNIVERSITÄT MÜNCHEN, priority 2018, published 2021)
# Assays:
# UMUC cells = assay: Western blot of Rb, phRB and E2F-1 in UMUC cells treated with cell cycle inhibitors; format: cell-based, human; settings: 24 hours post-treatment; for Rb, phRB and E2F-1 expression: indicated concentrations
# Method: Western Blot analysis of UMUC cells treated with indicated concentrations of CI-1040, Roscovitine, Nutlin-3a and LEE011 (Ribociclib). 1×10^6 cells were seeded in 10 cm dishes. 24 hours post-treatment proteins were isolated using 1% SDS buffer, to achieve the disruption of the nuclear membrane. All samples were drawn up several times into a syringe to disrupt the DNA and subsequently centrifuged at 30000 rpm at 4° C. for 30 minutes. The supernatant was transferred to a new reaction tube and directly used for further steps or stored at −80° C. To separate the proteins a sodium dodecyl sulfate polyacrylamide gel electrophoresis was performed. By means of electrophoresis for approximately two hours at 100V at 4° C., 40 μg of total proteins were loaded and probed against specific indicated antibodies.
# UMUC3 cells [1] = assay: Cell cycle analysis (EdU/PI flow cytometry) of UMUC3 cells; format: cell-based, human; settings: 48 hours; Roscovetine 10 μM, CI-1040 1 μM, Nutlin-3a 10 μM, LEE011 10 μM
# Method: FIG. 10 is a bar diagram showing cell cycle distribution in UMUC3 cells, measured 48 hours post treatment, whereby the concentrations of the CDK4/6 inhibitors was as follows: Roscovetine: 10 μM, CI-1040: 1 μM, Nutlin-3a: 10 μM, and LEE011: 10 μM.
# For cell cycle analysis cells were seeded in 6 well plates (2,5×10E4 c/well). 8 hours before infection with dl703, cells were treated with indicated concentration of cell cycle inhibitors. After infection with 10 MOI dl703 cells were again treated for 48 hours. Untreated cells and dl703 infected cells only, served as control. 48 h post infection cells were harvest by trypsinization and fixed with 80% ethanol while vortexing. To investigate the cell cycle status, fixed cells were centrifuged 5 min at RT and 300 g and ethanol was aspirated. Cells were resuspended and washed with 1%BSA-PBS (Bovine Serum Albumin) and again centrifuged. Cells were stained with EDU and cell cycle analysis were performed using the Click-iT™ Plus EdU Flow Cytometry Assay Kits, Catalog nos. C10632 from Thermo Fischer. In addition, after 3× times washing with 1% BSA/PBS cells were stained with PI (Propidium Iodine, 50 μg/ml). Measurement was directly performed after staining with a FACScalibur Flow Cytometry System. Data was analyzed with FlowJo software.
# T24 cells [2] = assay: IC-80 value of PARPi in T24 cells; format: cell-based; settings: Homo sapiens, T-24
# Method: 3000 T24 cells were seeded per well in 12-well plates and grown over-night in RPMI Medium containing 10% FCS at 37° C. Inhibitor-treatment of cells occurred 24 h past cell seeding and again 1 hour after infection by adding indicated concentration to the medium. Infection of cells took place 24 h past inhibitor-treatment in 250 μl Medium without serum. Fixation and SRB-staining took place at 1-5 days post infection (dpi: days post infection). 15 nM PARPi correspond to the IC-80 value in T24 cells.
# UMUC3 cells [3] = assay: IC-80 value of PARPi in UMUC3 cells; format: cell-based; settings: Homo sapiens
# Method: Seeding of UMUC-3: 3000 cells were seeded per well in 12-well plates and grown over-night in DMEM Medium containing 10% FCS at 37° C. Inhibitor-treatment of cell occurred 24 h past seeding and again 1 hour after infection by adding indicated concentration to the medium. Infection of cells took place 24 h past inhibitor-treatment. Fixation and SRB-staining took place at 1-6 days post infection (dpi: days post infection). 160 nM PARPi correspond to the IC-80 value in UMUC3 cells.
# T24 cells [4] = assay: Potency assay (SRB) of T24 cells, XVir-N-31, Palbociclib and JQ-1; format: cell-based, human
# Method: 5000 T24 cells were seeded in 12 well plates and grown in 1 ml RPMI-Medium containing 10% FCS. Next day cells were treated with 500 nM Palbociclib and 300 nM JQ-1. 24 hours post treatment cells were infected with indicated MOIs of XVir-N-31 in 200 μl RPMI-Medium containing no FCS. After 1 hour 800 μl RPMI-Medium containing 10% FCS were added into each well. In addition, 500 nM Palbociclib and 300 nM JQ-1 were added to the medium. SRB-Staining took place 5 days post infection. Mock treated cells were set 100% cell survival.
# SK-N-MC cells [5] = assay: Potency assay (SRB) of SK-N-MC cells, XVir-N-31, Abemaciclib and JQ1; format: cell-based; settings: 500 nM JQ1 added to 200 nM Abemaciclib, XVir-N-31, 5 days post infection
# Method: FIG. 16 is a bar diagram showing the result of a potency assay of SK-N-MC cells 5 days after exposure to XVir-N-31 alone, with 200 nM abemaciclib, 500 nM JQ1 or a combination of 200 nM abemaciclib and 500 nM JQ1, as percentage cell survival, whereby the cells were either not infected or infected with an MOI of 5, 10 or 20.
# 100.000 SK-N-MC cells/well were seeded in 12-well plates and grown in RPMI Medium containing 10% FCS at 5% CO2 at 37° C. Cells were treated with 200 nM Abemaciclib+500 nM JQ1 24 hours before and again 1 hour post infection by adding appropriate amount to the medium. Infection of XVir-N-31 took place in 500 μl in RPMI Medium without serum. SRB-Staining took place 5 days post infection. Mock treated cells were set 100% cell survival.
# SK-N-MC cells [6] = assay: Cell cycle distribution (propidium iodine) of SK-N-MC cells; format: cell-based; settings: 48 hours post treatment
# Method: 48 hours post treatment cells were washed twice took place with PBS (containing RNase A,100 U/ml). Cells were trypsinized and centrifuged at 1500 rpm, 4° C. for 5 min. Cells are fixed by adding slowly 1 ml of ice-cold 80% Ethanol drop by drop to the pellet and incubated overnight. Staining was performed by adding 1 ml of staining solution (Propidium Iodine,50 μg/ml) to the cells and incubating 30-60 min at RT with gentle rocking. MK: MK-1775; LY: LY-2835219.
# dl703 = assay: DNA-replication analysis of dl703 in UMUC cells treated with cell cycle inhibitors (fiber qPCR); format: cell-based, Mastadenovirus, Type C, Serotype 5
# Method: To investigate the differences in replication of d1703 (Mantwill et al. 2013, Journal of Translational Medicine, 11, 216) under different treatment conditions, DNA-replication analysis was performed. 100.000 UMUC cells were seeded in 6-well plates and grown in DMEM medium containing 10% FCS in 5% CO2 conditions at 37° C. 24 hours post seeding cells were treated for 24 hours with 10 μM Lee (Ribociclib), 1 μM CI-1040, 10 μM Nutlin-3a and 10 μM Roscovertine and again after infection adding an appropriate amount of inhibitors to the medium. Infection with 50 MOI dl703 (Mastadenovirus, Type C, Serotype 5 with a 3.2 kb sized deletion in E1 region) took place 24 hours post treatment. After 4 and 48 hours post infection DNA were isolated and qPCR was performed using specific primers for the viral fiber gene. Fiber fwd. 5′-[…]-3′; Fiber rev. 5′-[…]-3′.
# T24 = assay: IC50 concentration of PD-0332991 in bladder cancer cell line T24; format: cell-based; settings: Homo sapiens, T-24
# Method: (§1) The class of CDK4/6 inhibitors as subject to Example 5 requires expression of RB. Therefore, three RB positive and two RB negative bladder cancer derived cell lines were used and the cells treated with the combination therapy. Cell lines were pretreated for 24 hours with an IC50 concentration of PD-0332991 (T24: 500 nM, RT112: 2000 nM, 253J: 100 nM) and infected with XVir-N-31(T24 M0150, 253J MOI 25, RT112 MOI450). Values are the average of at least 2 independent experiments. Error bars show the standard error. Four dpi, cell viability was measured using SRB assays (a, c). (b, d) Lysates of cells were prepared 3 dpi and a titer test was performed on Hek293 cells. Viral titer is shown as fold change relative to control
# RT112 = assay: IC50 concentration of PD-0332991 in bladder cancer cell line RT112; format: cell-based; settings: Homo sapiens, RT-112
# Method: as §1
# 253J = assay: IC50 concentration of PD-0332991 in bladder cancer cell line 253J; format: cell-based; settings: Homo sapiens
# Method: as §1
smiles,measurement,setting,value
COc1ccc(C2=N[C@@H](c3ccc(Cl)cc3)[C@@H](c3ccc(Cl)cc3)N2C(=O)N2CCNC(=O)C2)c(OC(C)C)c1 [Nutlin-3a],"Rb, phRB and E2F-1 expression",UMUC cells,no pronounced effect
same,cell cycle distribution,UMUC3 cells [1],only little or no effect
Cn1ncnc1[C@H]1c2n[nH]c(=O)c3cc(F)cc(c23)N[C@@H]1c1ccc(F)cc1 [BMN673],IC80,T24 cells [2],15 nM
same,IC80,UMUC3 cells [3],160 nM
"Cc1sc2c(c1C)C(c1ccc(Cl)cc1)=N[C@@H](CC(=O)OC(C)(C)C)c1nnc(C)n1-2 [JQ1, thieno-triazolo-1-4-diazepine]",cell killing capacity of XVir-N-31,"T24 cells [4]; 300 nM JQ-1 with 500 nM Palbociclib, low MOIs, 5 days post infection",increased the cell killing capacity
same,cell killing of XVir-N-31,"T24 cells [4]; mono-therapy with 300 nM JQ1, 10 and 20 MOI",did not increase cell killing
same,cell killing,SK-N-MC cells [5],did not increase cell killing
"CCN1CCN(Cc2ccc(Nc3ncc(F)c(-c4cc(F)c5nc(C)n(C(C)C)c5c4)n3)nc2)CC1 [LY-2835219, abemaciclib]",cell cycle distribution,SK-N-MC cells [6],no effect
C=CCn1c(=O)c2cnc(Nc3ccc(N4CCN(C)CC4)cc3)nc2n1-c1cccc(C(C)(C)O)n1 [MK-1775],cell cycle distribution,"SK-N-MC cells [6]; 500 nM, alone",increase of cells in G2/M
O=C(NOCC1CC1)c1ccc(F)c(F)c1Nc1ccc(I)cc1Cl [CI-1040],viral DNA replication of dl703,"dl703; 1 μM, 50 MOI dl703",much lower compared to Ribociclib treated cells
same,E2F-1 as well as Rb and phRb expression,UMUC cells; 1 μM,induced inhibition
same,cell cycle distribution,UMUC3 cells [1],clear G1-arrest
"CN(C)C(=O)c1cc2cnc(Nc3ccc(N4CCNCC4)cn3)nc2n1C1CCCC1 [LEE011, ribociclib]",increase of viral DNA replication of dl703,"dl703; 10 μM, 50 MOI dl703, 48 hours post infection",~100 fold
same,E2F-1 as well as Rb and phRb expression,UMUC cells; 10 μM,induced inhibition
same,cell cycle distribution,UMUC3 cells [1],clear G1-arrest
"CC(=O)c1c(C)c2cnc(Nc3ccc(N4CCNCC4)cn3)nc2n(C2CCCC2)c1=O [PD-0332991, palbociclib]",IC50,T24,500 nM
same,IC50,RT112,2000 nM
same,IC50,253J,100 nM
CC[C@H](CO)Nc1nc(NCc2ccccc2)c2ncn(C(C)C)c2n1 [Roscovitine],"Rb, phRB and E2F-1 expression",UMUC cells,no pronounced effect
same,cell cycle distribution,UMUC3 cells [1],slight increase of G2/m arrested cells
